In patent publication US6869589B1, “Cryptate compounds and methods for diagnosis and therapy” (Australian Nuclear Science & Technology Organization, priority 1999, dated 2005):

Test: Biodistribution of ^64Cu complexes in balb/c mice
Experimental: The biodistribution of the ^64Cu complexes of compounds (1), (3) and (4) (0.10 ml intravenous injection) were evaluated in balb/c mice (5 animals per time point) at 3, 5, 10, 15, 20 and 30 minute time intervals. Biodistribution studies were performed in duplicate.

SMILES: NC12CNCCNCC(N)(CNCCNC1)CNCCNC2.[64Cu+2] [^64Cu-labelled compound (1)]
- % injected dose per gram (BLADDER, 3 MIN): 24.36 % INJECTED DOSE PER GRAM
- % injected dose per gram (BLADDER, 5 MIN): 31.12 % INJECTED DOSE PER GRAM
- % injected dose per gram (BLADDER, 10 MIN): 27.75 % INJECTED DOSE PER GRAM
- % injected dose per gram (BLADDER, 15 MIN): 15.17 % INJECTED DOSE PER GRAM
- % injected dose per gram (BLADDER, 20 MIN): 23.29 % INJECTED DOSE PER GRAM
- % injected dose per gram (BLADDER, 30 MIN): 122.93 % INJECTED DOSE PER GRAM
- % injected dose per gram (BLOOD, 3 MIN): 8.68 % INJECTED DOSE PER GRAM
- % injected dose per gram (BLOOD, 5 MIN): 6.32 % INJECTED DOSE PER GRAM
- % injected dose per gram (BLOOD, 10 MIN): 5.45 % INJECTED DOSE PER GRAM
- % injected dose per gram (BLOOD, 15 MIN): 2.48 % INJECTED DOSE PER GRAM
- % injected dose per gram (BLOOD, 20 MIN): 2.63 % INJECTED DOSE PER GRAM
- % injected dose per gram (BLOOD, 30 MIN): 1.14 % INJECTED DOSE PER GRAM
- % injected dose per gram (BONE, 3 MIN): 2.25 % INJECTED DOSE PER GRAM
- % injected dose per gram (BONE, 5 MIN): 1.87 % INJECTED DOSE PER GRAM
- % injected dose per gram (BONE, 10 MIN): 1.79 % INJECTED DOSE PER GRAM
- % injected dose per gram (BONE, 15 MIN): 1.23 % INJECTED DOSE PER GRAM
- % injected dose per gram (BONE, 20 MIN): 1.25 % INJECTED DOSE PER GRAM
- % injected dose per gram (BONE, 30 MIN): 0.78 % INJECTED DOSE PER GRAM
- % injected dose per gram (GIT, 3 MIN): 2.75 % INJECTED DOSE PER GRAM
- % injected dose per gram (GIT, 5 MIN): 2.21 % INJECTED DOSE PER GRAM
- % injected dose per gram (GIT, 10 MIN): 1.85 % INJECTED DOSE PER GRAM
- % injected dose per gram (GIT, 15 MIN): 1.11 % INJECTED DOSE PER GRAM
- % injected dose per gram (GIT, 20 MIN): 1.05 % INJECTED DOSE PER GRAM
- % injected dose per gram (GIT, 30 MIN): 1.16 % INJECTED DOSE PER GRAM
- % injected dose per gram (HEART, 3 MIN): 3.11 % INJECTED DOSE PER GRAM
- % injected dose per gram (HEART, 5 MIN): 2.25 % INJECTED DOSE PER GRAM
- % injected dose per gram (HEART, 10 MIN): 2.27 % INJECTED DOSE PER GRAM
- % injected dose per gram (HEART, 15 MIN): 0.89 % INJECTED DOSE PER GRAM
- % injected dose per gram (HEART, 20 MIN): 1.23 % INJECTED DOSE PER GRAM
- % injected dose per gram (HEART, 30 MIN): 0.40 % INJECTED DOSE PER GRAM
- % injected dose per gram (KIDNEY, 3 MIN): 23.18 % INJECTED DOSE PER GRAM
- % injected dose per gram (KIDNEY, 5 MIN): 11.50 % INJECTED DOSE PER GRAM
- % injected dose per gram (KIDNEY, 10 MIN): 12.80 % INJECTED DOSE PER GRAM
- % injected dose per gram (KIDNEY, 15 MIN): 6.77 % INJECTED DOSE PER GRAM
- % injected dose per gram (KIDNEY, 20 MIN): 7.77 % INJECTED DOSE PER GRAM
- % injected dose per gram (KIDNEY, 30 MIN): 4.95 % INJECTED DOSE PER GRAM
- % injected dose per gram (LIVER, 3 MIN): 2.29 % INJECTED DOSE PER GRAM
- % injected dose per gram (LIVER, 5 MIN): 1.50 % INJECTED DOSE PER GRAM
- % injected dose per gram (LIVER, 10 MIN): 1.42 % INJECTED DOSE PER GRAM
- % injected dose per gram (LIVER, 15 MIN): 0.82 % INJECTED DOSE PER GRAM
- % injected dose per gram (LIVER, 20 MIN): 0.69 % INJECTED DOSE PER GRAM
- % injected dose per gram (LIVER, 30 MIN): 0.50 % INJECTED DOSE PER GRAM
- % injected dose per gram (LUNGS, 3 MIN): 6.51 % INJECTED DOSE PER GRAM
- % injected dose per gram (LUNGS, 5 MIN): 4.45 % INJECTED DOSE PER GRAM
- % injected dose per gram (LUNGS, 10 MIN): 3.91 % INJECTED DOSE PER GRAM
- % injected dose per gram (LUNGS, 15 MIN): 2.06 % INJECTED DOSE PER GRAM
- % injected dose per gram (LUNGS, 20 MIN): 2.73 % INJECTED DOSE PER GRAM
- % injected dose per gram (LUNGS, 30 MIN): 0.85 % INJECTED DOSE PER GRAM
- % injected dose per gram (MUSCLE, 3 MIN): 1.81 % INJECTED DOSE PER GRAM
- % injected dose per gram (MUSCLE, 5 MIN): 1.81 % INJECTED DOSE PER GRAM
- % injected dose per gram (MUSCLE, 10 MIN): 2.39 % INJECTED DOSE PER GRAM
- % injected dose per gram (MUSCLE, 15 MIN): 2.28 % INJECTED DOSE PER GRAM
- % injected dose per gram (MUSCLE, 20 MIN): 1.17 % INJECTED DOSE PER GRAM
- % injected dose per gram (MUSCLE, 30 MIN): 1.33 % INJECTED DOSE PER GRAM
- % injected dose per gram (SKIN, 3 MIN): 5.82 % INJECTED DOSE PER GRAM
- % injected dose per gram (SKIN, 5 MIN): 5.59 % INJECTED DOSE PER GRAM
- % injected dose per gram (SKIN, 10 MIN): 5.48 % INJECTED DOSE PER GRAM
- % injected dose per gram (SKIN, 15 MIN): 2.61 % INJECTED DOSE PER GRAM
- % injected dose per gram (SKIN, 20 MIN): 2.96 % INJECTED DOSE PER GRAM
- % injected dose per gram (SKIN, 30 MIN): 1.63 % INJECTED DOSE PER GRAM
- % injected dose per gram (SPLEEN, 3 MIN): 2.09 % INJECTED DOSE PER GRAM
- % injected dose per gram (SPLEEN, 5 MIN): 1.48 % INJECTED DOSE PER GRAM
- % injected dose per gram (SPLEEN, 10 MIN): 1.54 % INJECTED DOSE PER GRAM
- % injected dose per gram (SPLEEN, 15 MIN): 1.44 % INJECTED DOSE PER GRAM
- % injected dose per gram (SPLEEN, 20 MIN): 0.69 % INJECTED DOSE PER GRAM
- % injected dose per gram (SPLEEN, 30 MIN): 0.52 % INJECTED DOSE PER GRAM
- % injected dose per gram (STOMACH, 3 MIN): 3.50 % INJECTED DOSE PER GRAM
- % injected dose per gram (STOMACH, 5 MIN): 2.73 % INJECTED DOSE PER GRAM
- % injected dose per gram (STOMACH, 10 MIN): 2.08 % INJECTED DOSE PER GRAM
- % injected dose per gram (STOMACH, 15 MIN): 1.50 % INJECTED DOSE PER GRAM
- % injected dose per gram (STOMACH, 20 MIN): 1.16 % INJECTED DOSE PER GRAM
- % injected dose per gram (STOMACH, 30 MIN): 0.74 % INJECTED DOSE PER GRAM
